The values that follow come from PubChem BioAssay AID179 (DTP/NCI, 2004).

The test system of this test is CEM cells HIV-1 protection, formazan growth assay. Put plainly: NCI AIDS Antiviral Assay. The conditions noted are these: for IC50: measured here: growth of uninfected CEM cells. Summed up:
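Steps: treat uninfected and HIV-1-infected human CEM cells at five drug levels; quantify growth by soluble formazan; retest any compound reaching 50% protection; classify actives from the retest.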

Activity calls are given as the source filed them.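 How the source made its calls: active means compounds giving half or more protection of infected cells from virus-caused growth loss, again on retest; inactive means the rest.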

As to `OCC1c2ccccc2-n2nc(-c3ccccc3)c(O)c21` (configuration not stated), the EC50 was more than 200 µM and the IC50 came to 3.31 µM. Taken in the same sequence, the figures for `Nc1ncnc2c1nnn2C1C=CC(COS(N)(=O)=O)C1` (configuration not stated) were more than 200 µM and 43.7 µM. `O=c1c2cc3c(cc2c2cccc4c2n1CCC4)OCO3`: the outcome was inactive. Regarding `CC(C(=O)N1C(=O)N(C(=O)[C@H](C)C(O)c2ccccc2)[C@H](c2ccccc2)[C@H]1c1ccccc1)[C@@H](O)c1ccccc1` (some centres not stated), the EC50 was more than 200 µM and the IC50 stood at 28.2 µM.

With `Cc1nc(-n2nc(-c3ccccc3)cc2-c2ccccc2)sc1C(=O)/C=C/c1cccc([N+](=O)[O-])c1`, the EC50 was more than 14.5 µM and the concentration for half-maximal inhibition (IC50) was found to be 11 µM. Taken in the same sequence, the figures for `C=C(C)C1CC[C@@](C)(O)[C@H](C#N)C1` (some centres not stated) were more than 200 µM and more than 200 µM. Taken in the same sequence, the figures for `CC(=O)NNc1nc(C)c(C(=O)/C=C/c2ccc(Cl)c(Cl)c2)s1` were more than 51.3 µM and more than 51.3 µM. Taken in the same sequence, the figures for `CCOC(=O)N1C(=S)C(C(=O)OC)(C(=O)OC)N=C1C` were more than 200 µM and more than 200 µM. As to `CC(=O)OC1CCCn2c1nc1c2C(=O)C(C)=C(N2CC2)C1=O` (configuration not stated), the outcome was inactive. With `CCc1cc(CCC(=O)Nc2c(C)cccc2C)nc(NC#N)n1`, the result was inactive. Turning to `CC1(C)OCC(CO)(CO)CO1`, the EC50 was more than 1410 µM and the IC50 is more than 1410 µM.

For `O=[N+]([O-])c1nccn1COCCO`, the EC50 is more than 1320 µM and the IC50 is more than 1320 µM. As for `CCN1CCC(O)(c2ccc(C)cc2)C(C(=O)c2ccc(C)cc2)C1` (configuration not stated), the EC50 is more than 162 µM and the IC50 came out at 11.7 µM. Taken in the same sequence, the figures for `Cc1cn(C(CCO)CCO)c(=O)[nH]c1=O` were more than 200 µM and more than 200 µM. The corresponding values for `CCCCCCCC[N+]12CN3CN(CN(C3)C1)C2` are more than 759 µM and 39.8 µM. Taken in the same sequence, the figures for `CC1OC2=N[C@@H]1C(=O)N[C@@H](C(C)C)C1=N[C@H](C(=O)N[C@@H](C(C)C)C3=N[C@H](C(=O)N[C@@H](C(C)C)C4=N[C@H](C(=O)N[C@H]2C(C)C)C(C)O4)C(C)O3)C(C)O1` (some centres not stated) were more than 200 µM and more than 200 µM. For `N=C(N)SCc1ccc(N=C=S)cc1`, the EC50 was more than 200 µM and the IC50 was 83.2 µM. The corresponding values for `OC1(c2cccc3ccccc23)CCCc2cc3c(ccc4ccccc43)cc21` (configuration not stated) are more than 200 µM and 155 µM. Taken in the same sequence, the figures for `N#CCN1c2ccccc2CCC1Cl` (configuration not stated) were more than 200 µM and more than 200 µM.

In the case of `COc1ccc2c(c1OC)CC1COCC21` (configuration not stated), the EC50 was more than 200 µM and the IC50 was more than 200 µM.

Regarding `O=C(O)CCSC(=S)NCCNC(=S)SCCC(=O)O`, the EC50 was more than 708 µM and the IC50 was found to be 437 µM. The corresponding values for `CCOC(=O)c1c(NC(=O)c2cccs2)sc2c1CCC2` are 195 µM and more than 200 µM. With `CN(C)CNc1ncnc2onc(-c3ccccc3)c12`, the result was inactive.

On to `CSC1=C(SC)C(=O)c2cn(C)c(=O)cc2C1=O`, for which the EC50 was more than 200 µM and the IC50 is 0.977 µM.

Turning to `Clc1cc2c(c3ncccc13)OCN(CCc1ccccc1)C2`, the EC50 is more than 200 µM and the IC50 came to 0.955 µM. Taken in the same sequence, the figures for `N/N=C(\C(=O)Nc1ccc(Cl)cc1Cl)C(c1cnc2ccccc2n1)[N+](=O)[O-]` (configuration not stated) were more than 120 µM and more than 120 µM. As to `N#CCC(C#N)N1CCOCC1` (configuration not stated), the EC50 is more than 200 µM and the IC50 was more than 200 µM. In the case of `COC(=O)[C@@]12CSC[C@]1(C(=O)OC)N[C@@H](c1ccccc1O)C2`, the EC50 was more than 200 µM and the IC50 was more than 200 µM. For the compound `CCOC(CN(C)C(=S)Nc1cccc2ccccc12)OCC`, the EC50 is more than 200 µM and the IC50 turned out to be 158 µM. Turning to `NC(=N/N=C(/c1ccccc1)c1ccc(N)cc1)/C(N)=N\N=C(/c1ccccc1)c1ccc(N)cc1`, the result was inactive. Regarding `C[N+](C)(C)Cc1c(CC#N)[nH]c2ccccc12`, the EC50 was more than 123 µM and the IC50 was determined as 66.1 µM. The corresponding values for `N#C/C(c1nc2ccccc2[nH]1)=c1\s/c(=C(/N)O)c(=N)n1-c1ccccc1` are more than 13.8 µM and more than 13.8 µM. Regarding `C[C@]12CCC(=O)C(O)=C1CC[C@@H]1C2CC[C@]2(C)Nc3c(cnn3-c3ccccc3)CC12` (some centres not stated), the outcome was inactive. As to `CCCCCCOc1ccc(C(=O)NOC)cc1`, the EC50 is more than 200 µM and the IC50 was 110 µM. As to `O=C(CC(=O)C1CCOC1=O)C(=O)Nc1ccc(Cl)cc1Cl` (configuration not stated), the outcome was inactive. For `COC(=O)/C=C1/Nc2c(n(C)c(=O)n(C)c2=O)NC1=O`, the EC50 was more than 200 µM and the IC50 is more than 200 µM.

`O=c1ccc2cc3ccoc3c(OCCCCCCBr)c2o1`: the EC50 was more than 75.9 µM and the IC50 came to 30.9 µM. Turning to `Cc1nnc(NS(=O)(=O)c2ccc(N=Nc3c(N)n(C)c(=O)n(C)c3=O)cc2)s1`, the result was inactive.

Consider `C=C(C)CN1CCCN(S(=O)(=O)c2ccc(C)cc2)CC(=C)CN(S(=O)(=O)c2ccc(C)cc2)CCC1`, for which the EC50 is more than 200 µM and the IC50 was found to be 5.25 µM.

Turning to `CCOC(=O)/C(F)=C/c1cccc(F)c1`, the EC50 is more than 170 µM and the IC50 is more than 170 µM. Turning to `C=C(Br)CN1CCC2(c3ccccc3)C(O)C([Se]c3ccccc3)CCC12` (configuration not stated), the EC50 was more than 27.5 µM and the 50% inhibitory concentration (IC50) is more than 27.5 µM. For `CCCCCCCCCCCCCCCCCCOP1(=O)OCCO1`, the EC50 was more than 50.1 µM and the IC50 was more than 50.1 µM. On to `COc1ccc2c3c(c4cc(OC)c(OC)cc4c2c1)C[C@H]1CCCCN1C3`, for which the EC50 was more than 31.6 µM and the IC50 was 0.01 µM. The corresponding values for `C[C@@H](c1ccccc1)N1CO[C@@]2(C#Cc3ccc4c(c3)OCO4)CCC[C@@H]12` are more than 200 µM and 33.1 µM. Taken in the same sequence, the figures for `CC1(C)CCCOc2cccc(c2)OCCCC(C)(C)C1=O` were more than 200 µM and more than 200 µM. With `Cn1cc(NC(=O)Nc2cc(C(=O)Nc3cc(C(=O)Nc4cc(P(=O)(O)O)c5cccc(P(=O)(O)O)c5c4)n(C)c3)n(C)c2)cc1C(=O)Nc1cc(C(=O)Nc2cc(P(=O)(O)O)c3cccc(P(=O)(O)O)c3c2)n(C)c1`, the EC50 was 89.1 µM and the IC50 was 126 µM. The corresponding values for `CCOC(=O)C1C(C(C)C)C2(C#N)C(=N)OC1(C)C2(C#N)C#N` (configuration not stated) are more than 200 µM and 49 µM. Taken in the same sequence, the figures for `CC(CCc1nc2ccccc2[nH]1)C1CCC2C3C(C[C@H](O)[C@]12C)[C@@]1(C)CC[C@@H](O)C[C@H]1C[C@H]3O` (some centres not stated) were more than 50.1 µM and 10 µM. Taken in the same sequence, the figures for `Nc1c(C(=O)O)sc2ncccc12` were 141 µM and 219 µM. For `O=c1ccs[nH]1`, the EC50 is more than 676 µM and the half-maximal inhibitory concentration (IC50) is 6.46 µM. Consider `COC(CN(C)C(=O)C(C)NC(=O)c1ccccc1)OC` (configuration not stated), for which the result was inactive. As to `CC(C)=CCc1c(O)ccc2c1OC1c3ccc(O)c(CC=C(C)C)c3OCC21` (configuration not stated), the result was inactive. Turning to `CCCCN(CCCC)CC(C(=O)Nc1ccccc1)/C(C)=N\NC(=O)c1ccncc1` (configuration not stated), the EC50 was more than 51.3 µM and the IC50 worked out at 30.2 µM. As to `CC(=O)c1ccc2c3ccccc3c3cccc4sc1c2c43`, the EC50 was more than 22.4 µM and the half-maximal inhibitory concentration (IC50) was more than 22.4 µM.

`C#CCOCn1cnc2c(Sc3c([N+](=O)[O-])ncn3C)ncnc21`: the EC50 was more than 105 µM and the IC50 was 38 µM.

Consider `O=C(CSc1nnc(Cc2ccccc2)o1)Nc1ccccc1`, for which the EC50 is more than 209 µM and the IC50 is more than 209 µM. With `c1ccc(SC2=C(Sc3ccccc3)CC2)cc1`, the EC50 is more than 200 µM and the IC50 is 89.1 µM. The corresponding values for `Cn1c(-c2ccccc2)cc(-c2ccsc2)c1-c1ccsc1` are more than 200 µM and 158 µM.

On to `O=C(O)C(=Cc1ccc([N+](=O)[O-])cc1)C(=O)O`, for which the EC50 was more than 1050 µM and the IC50 was determined as 550 µM. The corresponding values for `Cc1cc(=O)oc2c1ccc1occc(=O)c12` are more than 100 µM and 56.2 µM. Taken in the same sequence, the figures for `O=C(Nc1cccc(O)c1)C(=O)C(C(=O)c1ccccc1F)C1OC(=O)c2ccccc21` (configuration not stated) were more than 302 µM and 24 µM. For the compound `CCOC(=O)C(c1ccsc1)C(C(=O)OCC)c1cccs1` (configuration not stated), the EC50 was more than 200 µM and the IC50 is more than 200 µM. Turning to `CC(=O)N1CC[N+](C)(CCCCN2c3ccccc3Sc3cc(N=[N+]=[N-])ccc32)CC1`, the EC50 is more than 200 µM and the IC50 amounted to 81.3 µM. Taken in the same sequence, the figures for `Cc1nc2c(=S)nc[nH]c2n1Nc1ccccc1` were more than 200 µM and 72.4 µM. Taken in the same sequence, the figures for `COCOc1ccc(C2(O)Oc3cc(OCOC)ccc3C2C)c(O)c1` (configuration not stated) were more than 200 µM and 24 µM. Taken in the same sequence, the figures for `COc1cc(/C=C2\CCC(C)C3=C2N=c2s/c(=C/c4ccc(Cl)cc4)c(=O)n2C3c2cc(OC)c(OC)c(OC)c2)cc(OC)c1OC` (configuration not stated) were more than 200 µM and 102 µM. As to `O=C1c2ccccc2C(=O)N1/N=C\c1ccc([N+](=O)[O-])cc1`, the EC50 is more than 24.5 µM and the IC50 was more than 24.5 µM. With `CCN(CC)C(=O)N1CCN(C)CC1`, the EC50 was more than 200 µM, the result was inactive and the IC50 is more than 200 µM. In the case of `Cc1ccc(O)c(C(c2cccc(C(c3cc(C)ccc3O)c3cc(C)ccc3O)c2)c2cc(C)ccc2O)c1`, the EC50 is more than 20 µM and the IC50 was 3.31 µM. Taken in the same sequence, the figures for `O=C1CCC(c2ccccc2)=NN1c1nsc2ccccc12` were more than 85.1 µM and more than 85.1 µM.

Turning to `CCOC(=O)C1=C(C)NC(=O)NC1c1ccccc1` (configuration not stated), the EC50 was more than 200 µM and the IC50 was more than 200 µM. In the case of `FC(F)(F)P1C2C=CC(CC2)C1(F)F` (configuration not stated), the EC50 is more than 251 µM and the IC50 was more than 251 µM.

For `CCc1cc2c(c3c1CCCC3)CC1(Cc3ccc(C(=O)OC)cc3C1)C2` (configuration not stated), the EC50 is more than 200 µM and the IC50 was more than 200 µM.
